Source: EP3088535A1 (priority 2015, dated 2016)

Legend:
[1] = molecular target: Reverse Transcriptase from Patient #C infected by HIV-1 (Human immunodeficiency virus type 1, UniProt P04585)
Experimental: (§1) Transformed cells (that grew in TRP lacking media) were incubated for 16h with shacking in 13 mL rich medium (Yeast extract Peptone Dextrose) at a final cell density 0,06 OD / mL.
(§2) 13 mL cell culture supernatant was collected after centrifugation at 1500 rpm for 5min and kept as the source for in vitro Reverse Transcriptase resistance analysis.
(§3) HIV Reverse Transcriptase resistance to reverse transcriptase inhibitors was analyzed as follows.
(§4) In a final volume of 150µl, 120µl of transformed cell's medium were incubated in 56 mM Tris-HCl, 56 mM KCl and 9 mM MgCl2 with: • 1.76µg of MS2 RNA (SEQ ID NO: 20), and • 0.059 pmoles of 5'biotinylated primer of SEQ ID NO: 19, and • dNTP mixture (1.5pmoles of each one; dATP, dGTP, dCTP, and dTTP), and • 0.19 pmoles of DIG (digoxigenin) modified dUTP, and • 30 µl of one of each concentration out of eight serial one to one dilutions of Reverse Transcriptase inhibitors in water (in this way the inhibitor was further diluted […]).
(§5) The Reverse Transcriptase inhibitor's one to one dilution started at the following concentrations:
(§6) The mixture reaction was incubated at 37°C for an overnight period (16 - 20 hours).
(§7) At the end of the incubation, each reaction mixture was transferred to a streptavidin coated flat bottom well for ELISA based RNA retro-transcribed DNA determination.
(§8) Wells were washed three times with 200µl of wash buffer (0.1%BSA and 0.05% Tween in PBS) before 30min incubation at room temperature with 100µl of a 1:1000 dilution of Peroxidase -conjugated monoclonal mouse anti-DIG (from Jackson Immunosearch ref N°JIR 200-032-156) in wash buffer.

[2] = molecular target: Reverse Transcriptase from Patient #B infected by HIV-1 (Human immunodeficiency virus type 1, UniProt P04585)
Experimental: as §1, §2, §3, §4, §5, §6, §7, §8

[3] = molecular target: Reverse Transcriptase from Patient #A infected by HIV-1 (Human immunodeficiency virus type 1, UniProt P04585)
Experimental: as §1, §2, §3, §4, §5, §6, §7, §8

Measured: sensitivity of RT to inhibitor compared with the reference isolate HIV-1 IIIB

Cc1ccnc2c1NC(=O)c1cccnc1N2C1CC1 [NVP, nevirapine]
more sensitive: all assays above
